Here are results for twelve compounds from patent publication US8853258B2, “C-linked hydroxamic acid derivatives useful as antibacterial agents” (Pfizer Inc., priority 2009, dated 2014).

The subject of series [1] is Escherichia coli EC-1: VOGEL, mouse virulent. Put plainly: MIC determination (CLSI), EC-1. The class given is cell-based. The method, boiled down:
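E. coli Vogel, a mouse-virulent strain (EC-1), was tested. MICs were set by dilution susceptibility testing per CLSI standards M7-A7/M100-S18.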

Series [2] has as its system Klebsiella pneumoniae: Ciprofloxacin-resistant isolate, ESBL, clinical isolate (KP-3700). Put plainly: MIC determination (CLSI), KP-3700. The class given is cell-based. Put shortly: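 Strain KP-3700, a clinical isolate producing extended-spectrum β-lactamases and resistant to ciprofloxacin, was tested. Minimum inhibitory concentrations determined via CLSI dilution methodology (M7-A7; M100-S18).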

For series [3], the system named is Pseudomonas aeruginosa UI-18: Wild-type (PA-7). Put plainly: MIC determination (CLSI), PA-7. The class given is cell-based. Put shortly:
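Wild-type P. aeruginosa UI-18 tested for minimum inhibitory concentration. Broth/agar dilution following CLSI standards (M7-A7, M100-S18).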

Series [4] concerns Acinetobacter baumanii/haemolyticus: Multidrug-resistant clinical isolate (AB-3167). Put plainly: MIC determination (CLSI), AB-3167. The class given is cell-based. The method, boiled down: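 Multidrug-resistant clinical isolate AB-3167 (A. baumannii/haemolyticus) tested for minimum inhibitory concentration following CLSI dilution susceptibility standards M7-A7 and M100-S18.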

In series [5] the target is Pseudomonas aeruginosa LpxC enzyme (Pseudomonas aeruginosa (strain ATCC 15692 / DSM 22644 / CIP 104116 / JCM 14847 / LMG 12228 / 1C / PRS 101 / PAO1), UniProt P47205). Put plainly: IC50 Assay, LpxC Enzyme from P. aeruginosa (PA LpxC Enzyme IC50). The class given is biochemical. As to conditions: P. aeruginosa LpxC enzyme; read-out: PA LpxC enzyeme IC50. The method, boiled down:
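Product formation quantified by RapidFire HTMS after a 1 h enzyme reaction quenched with 1N HCl.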

Where [6] appears, read: Escherichia coli EC-1 VOGEL, mouse virulent.
Setting [7] is: Pseudomonas aeruginosa UI-18 wild-type PA-7.
The mark [8] stands for this setting: Acinetobacter baumanii/haemolyticus multidrug-resistant clinical isolate AB-3167.
Where [9] appears, read: Pseudomonas aeruginosa UI-18 (PA-7).
[10] abbreviates: Acinetobacter baumanii/haemolyticus AB-3167.

`CC(CCc1ccc(-c2cccnc2)c(F)c1)(C(=O)NO)S(C)(=O)=O` (stereo not drawn) [Example 197]: the “EC-1 MIC” value in series [1] (setting [6]) is recorded as “≧64 mg/L”. Also, the “KP-3700 MIC” value in series [2] is reported as “≧64 mg/L”. Besides, the “PA-7 MIC” value in series [3] (setting [7]) was found to be 8 mg/L. In series [4] (setting [8]), the “AB-3167 MIC” value is recorded as “≧64 mg/L”. In addition, the IC50 in series [5] was found to be 7.11 nM.

Regarding `C[C@@](CCc1ccc(-c2cccnc2)cc1)(C(=O)NO)S(C)(=O)=O` [Example 198], the “EC-1 MIC” value in series [1] (setting [6]) is “≧64 mg/L”. The “KP-3700 MIC” value in series [2] is “≧64 mg/L”. For the same compound, in series [3] (setting [7]), the “PA-7 MIC” value turned out to be 8 mg/L. Moreover, the “AB-3167 MIC” value in series [4] (setting [8]) was “≧64 mg/L”. Moreover, the half-maximal inhibitory concentration (IC50) in series [5] amounted to 3.84 nM.

Take `C[C@@](CCc1ccc(-c2ccc3c(c2)CNC3=O)cc1)(C(=O)NO)S(C)(=O)=O` [Example 199]: the “EC-1 MIC” value in series [1] (setting [6]) came to 8 mg/L. For the same compound, the “KP-3700 MIC” value in series [2] is on record as 32 mg/L. Further, the “PA-7 MIC” value in series [3] (setting [7]) came to 2 mg/L. Further, the “AB-3167 MIC” value in series [4] (setting [8]) is “≧64 mg/L”. Besides, the 50% inhibitory concentration (IC50) in series [5] came to 0.266 nM.

For the compound `CC(CCc1ccc(-c2cnc3ccccc3c2)cc1F)(C(=O)NO)S(C)(=O)=O` (stereo not drawn) [Example 200], in series [1] (setting [6]), the “EC-1 MIC” value was found to be 1 mg/L. Further, the “KP-3700 MIC” value in series [2] is recorded as 8 mg/L. Besides, the “PA-7 MIC” value in series [3] (setting [7]) was 4 mg/L. Moreover, the “AB-3167 MIC” value in series [4] (setting [8]) is reported as “≧64 mg/L”. In series [5], the IC50 was 0.463 nM.

For `C[C@@](CCc1ccc(-c2cnc3ccccc3c2)cc1)(C(=O)NO)S(C)(=O)=O` [Example 201], the “EC-1 MIC” value in series [1] (Escherichia coli EC-1) is reported as 1 mg/L. For the same compound, the “KP-3700 MIC” value in series [2] was 8 mg/L. For the same compound, in series [3] (setting [9]), the “PA-7 MIC” value stood at 2 mg/L. For the same compound, the “AB-3167 MIC” value in series [4] (setting [10]) was “≧64 mg/L”. Further, the IC50 in series [5] turned out to be 0.24 nM.

As to `C[C@@](CCc1ccc(-c2ccc(C#N)cn2)cc1)(C(=O)NO)S(C)(=O)=O` [Example 202], the “EC-1 MIC” value in series [1] (Escherichia coli EC-1) is 8 mg/L. Further, the “KP-3700 MIC” value in series [2] was determined as 16 mg/L. Besides, in series [3] (setting [9]), the “PA-7 MIC” value came to 1 mg/L. Further, the “AB-3167 MIC” value in series [4] (setting [10]) was “≧64 mg/L”. Moreover, the IC50 in series [5] stood at 0.808 nM.

Consider `CC(CCc1ccc(-c2ccc3c(c2)C(=O)NC3)c(F)c1)(C(=O)NO)S(C)(=O)=O` (stereo not drawn) [Example 203], for which the “EC-1 MIC” value in series [1] (Escherichia coli EC-1) amounted to 8 mg/L. Moreover, the “KP-3700 MIC” value in series [2] is 32 mg/L. Moreover, in series [3] (setting [9]), the “PA-7 MIC” value is 4 mg/L. Also, in series [4] (setting [10]), the “AB-3167 MIC” value is “≧64 mg/L”. Besides, the IC50 in series [5] was 0.659 nM.

For `C[C@@](CCc1ccc(-c2ccc(N)nc2)cc1)(C(=O)NO)S(C)(=O)=O` [Example 204], the “EC-1 MIC” value in series [1] (Escherichia coli EC-1) is given as “≧64 mg/L”. The “KP-3700 MIC” value in series [2] was “≧64 mg/L”. Besides, the “PA-7 MIC” value in series [3] (setting [9]) was 8 mg/L. Besides, the “AB-3167 MIC” value in series [4] (setting [10]) is on record as “≧64 mg/L”. In addition, in series [5], the IC50 worked out at 18.2 nM.

For the compound `CC(=O)Nc1ccc(-c2ccc(CC[C@](C)(C(=O)NO)S(C)(=O)=O)cc2)cc1` [Example 205], in series [1] (Escherichia coli EC-1), the “EC-1 MIC” value is on record as 16 mg/L. The “KP-3700 MIC” value in series [2] is 32 mg/L. In addition, the “PA-7 MIC” value in series [3] (setting [9]) stood at 4 mg/L. In addition, the “AB-3167 MIC” value in series [4] (setting [10]) is “≧64 mg/L”. In series [5], the concentration for half-maximal inhibition (IC50) came out at 1.74 nM.

In the case of `CC(CCc1ccc(-c2ccc(N)nc2)c(F)c1)(C(=O)NO)S(C)(=O)=O` (stereo not drawn) [Example 206], in series [1] (Escherichia coli EC-1), the “EC-1 MIC” value is “≧64 mg/L”. Also, the “KP-3700 MIC” value in series [2] is “≧64 mg/L”. Besides, in series [3] (setting [9]), the “PA-7 MIC” value amounted to 16 mg/L. Further, in series [4] (setting [10]), the “AB-3167 MIC” value is given as “≧64 mg/L”. For the same compound, the half-maximal inhibitory concentration (IC50) in series [5] turned out to be 23.5 nM.

For `CC(=O)Nc1ccc(-c2ccc(CCC(C)(C(=O)NO)S(C)(=O)=O)cc2F)cc1` (stereo not drawn) [Example 207], the “EC-1 MIC” value in series [1] (Escherichia coli EC-1) is 32 mg/L. Further, the “KP-3700 MIC” value in series [2] is reported as “≧64 mg/L”. In addition, in series [3] (setting [9]), the “PA-7 MIC” value was found to be 16 mg/L. For the same compound, in series [4] (setting [10]), the “AB-3167 MIC” value was “≧64 mg/L”. The concentration for half-maximal inhibition (IC50) in series [5] came to 7.09 nM.

For `C[C@@](CCc1ccc(-c2ccc3c(c2)C(=O)NC3)cc1)(C(=O)NO)S(C)(=O)=O` [Example 208], in series [1] (Escherichia coli EC-1), the “EC-1 MIC” value is reported as 4 mg/L. Also, the “KP-3700 MIC” value in series [2] is 16 mg/L. For the same compound, the “PA-7 MIC” value in series [3] (setting [9]) amounted to 2 mg/L. For the same compound, the “AB-3167 MIC” value in series [4] (setting [10]) is “≧64 mg/L”. In addition, the half-maximal inhibitory concentration (IC50) in series [5] was 0.374 nM.
